From PubChem BioAssay (NCI) come the findings set out here.

The structures appear in SMILES notation.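 Results reflect a 48-hour exposure of cells in 96-well plates to compound at five concentrations. TGI is the concentration that stops growth completely.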

Some test systems named below: SW-620 colon; MCF7 breast; UO-31 renal; LOX IMVI melanoma; ACHN renal; SK-OV-3 ovarian; MDA-MB-231 breast; UACC-257 melanoma; MALME-3M melanoma; SK-MEL-5 melanoma; NCI/ADR-RES ovarian; OVCAR-8 ovarian; MDA-N; HCT-116 colon; SF-268 CNS; T-47D breast; SK-MEL-28 melanoma; PC-3 prostate; HL-60(TB) leukemia.
Holding throughout (experiment): DTP human tumour cell line panel, 48 h

Take `COc1ccccc1N1C(=O)/C(=C\c2cc(OC)c(OC)c(OC)c2)S(=O)(=O)C1c1ccccc1` (stereo unspecified): the TGI (usually the concentration at which net growth stops) in the assay with SW-620 colon is above 100 µM; in the assay with MCF7 breast, above 100 µM; in the assay with UO-31 renal it was above 100 µM; with LOX IMVI melanoma, above 100 µM; in the assay on ACHN renal it was above 100 µM; in the assay with SK-OV-3 ovarian it was 76.5 µM. Also, the concentration for total growth inhibition (TGI) was above 100 µM in the assay on MDA-MB-231 breast; above 100 µM in the assay on UACC-257 melanoma; 96.3 µM in the assay on MALME-3M melanoma; above 100 µM in the assay with SK-MEL-5 melanoma; 72.1 µM in the assay on NCI/ADR-RES ovarian; above 100 µM with OVCAR-8 ovarian. Moreover, the TGI in the assay on MDA-N is 48.3 µM; in the assay with HCT-116 colon, above 100 µM; in the assay with SF-268 CNS it was above 100 µM; in the assay with T-47D breast, above 100 µM; in the assay with SK-MEL-28 melanoma it was above 100 µM.

On to `Cc1ccnc2c1ccc1nc3ccccc3n12`, for which the TGI with SW-620 colon, in the assay on MCF7 breast, in the assay with UO-31 renal, in the assay on PC-3 prostate, with LOX IMVI melanoma and with MDA-MB-231 breast was above 100 µM throughout. Moreover, the TGI in the assay with UACC-257 melanoma is above 100 µM; with SK-MEL-5 melanoma, 93.1 µM; in the assay on NCI/ADR-RES ovarian, above 100 µM; with OVCAR-8 ovarian, 92.4 µM; with HL-60(TB) leukemia, above 100 µM; in the assay with MDA-N, above 100 µM. The TGI in the assay with HCT-116 colon is above 100 µM; with SF-268 CNS, 99.6 µM; with T-47D breast it was above 100 µM.

Turning to `COC(=O)c1c(C(=O)OC)c(C(c2ccccc2)c2ccccc2)n(-c2ccccc2)c1Cl`, the TGI in the assay on SW-620 colon, in the assay with MCF7 breast, in the assay on UO-31 renal, in the assay with PC-3 prostate, in the assay with ACHN renal and with MDA-MB-231 breast was above 10 µM each time. The concentration for total growth inhibition (TGI) with UACC-257 melanoma, with MALME-3M melanoma, in the assay on SK-MEL-5 melanoma, with NCI/ADR-RES ovarian, with OVCAR-8 ovarian and in the assay on HL-60(TB) leukemia was above 10 µM throughout. Further, the TGI with MDA-N, in the assay on HCT-116 colon, with SF-268 CNS, in the assay on T-47D breast and in the assay on SK-MEL-28 melanoma was above 10 µM in each case.

In the case of `Cc1ncc([N+](=O)[O-])n1CCNC(=O)CCn1ccnc1[N+](=O)[O-]`, the TGI in the assay with SW-620 colon, with MCF7 breast, in the assay with UO-31 renal, in the assay with PC-3 prostate, in the assay with LOX IMVI melanoma and in the assay with ACHN renal was above 100 µM each time. Further, the TGI with SK-OV-3 ovarian, with UACC-257 melanoma, with MALME-3M melanoma, in the assay on SK-MEL-5 melanoma, with NCI/ADR-RES ovarian and in the assay on OVCAR-8 ovarian was above 100 µM in each case. Besides, the TGI in the assay on HL-60(TB) leukemia, with MDA-N, in the assay on HCT-116 colon, in the assay with SF-268 CNS, in the assay with T-47D breast and with SK-MEL-28 melanoma was above 100 µM in each case.

As for `O=c1c2c3c(sc2nc2n1N=CN(c1ccc(Cl)cc1)C2)CCCC3`, the total growth inhibition concentration (TGI) with SW-620 colon, with MCF7 breast, in the assay with UO-31 renal, in the assay on PC-3 prostate, in the assay on LOX IMVI melanoma and with ACHN renal was above 100 µM throughout. In addition, the total growth inhibition concentration (TGI) in the assay on SK-OV-3 ovarian is above 100 µM; in the assay with MDA-MB-231 breast it was above 100 µM; in the assay on UACC-257 melanoma, above 100 µM; in the assay with MALME-3M melanoma, 97.9 µM; in the assay with SK-MEL-5 melanoma, above 100 µM; with NCI/ADR-RES ovarian it was above 100 µM. The concentration for total growth inhibition (TGI) in the assay with OVCAR-8 ovarian, with MDA-N, with HCT-116 colon, with SF-268 CNS, in the assay with T-47D breast and in the assay with SK-MEL-28 melanoma was above 100 µM each time.

For the compound `COc1ccc(N2C(=O)/C(=C\c3cc(OC)c(OC)c(OC)c3)S(=O)(=O)C2c2ccccc2)cc1` (stereo unspecified), the TGI in the assay on SW-620 colon, with MCF7 breast, in the assay with UO-31 renal, in the assay on LOX IMVI melanoma, in the assay with ACHN renal and with SK-OV-3 ovarian was above 100 µM in each case. In addition, the TGI in the assay on MDA-MB-231 breast was above 100 µM; with UACC-257 melanoma, above 100 µM; in the assay with MALME-3M melanoma, above 100 µM; in the assay with SK-MEL-5 melanoma it was above 100 µM; in the assay on NCI/ADR-RES ovarian, 78.9 µM; in the assay on OVCAR-8 ovarian, above 100 µM. Further, the concentration for total growth inhibition (TGI) in the assay with MDA-N is 40.8 µM; in the assay with HCT-116 colon, above 100 µM; in the assay on SF-268 CNS, above 100 µM; in the assay with T-47D breast, above 100 µM; in the assay with SK-MEL-28 melanoma, above 100 µM.

In the case of `O=S1(=O)OCCCOS(=O)(=O)C1Br`, the TGI in the assay on SW-620 colon, in the assay with MCF7 breast, in the assay on UO-31 renal, with PC-3 prostate, in the assay on LOX IMVI melanoma and in the assay with ACHN renal was above 100 µM throughout. Also, the TGI with SK-OV-3 ovarian, in the assay on UACC-257 melanoma, in the assay with MALME-3M melanoma, with SK-MEL-5 melanoma, in the assay with NCI/ADR-RES ovarian and in the assay with OVCAR-8 ovarian was above 100 µM each time. In addition, the TGI with MDA-N, in the assay with HCT-116 colon, in the assay on SF-268 CNS, with T-47D breast and with SK-MEL-28 melanoma was above 100 µM throughout.

With `CCn1c(=O)c2c3ccc(O)cc3oc2c2ccc(O)cc21`, the TGI is above 100 µM in the assay with SW-620 colon; above 100 µM in the assay with MCF7 breast; 78.3 µM in the assay with UO-31 renal; above 100 µM in the assay with PC-3 prostate; 88 µM in the assay with ACHN renal; above 100 µM with SK-OV-3 ovarian. Also, the TGI in the assay on MDA-MB-231 breast, with UACC-257 melanoma, in the assay with MALME-3M melanoma, with SK-MEL-5 melanoma, in the assay on NCI/ADR-RES ovarian and with OVCAR-8 ovarian was above 100 µM each time. The TGI in the assay on MDA-N is above 100 µM; with HCT-116 colon, 74 µM; in the assay with SF-268 CNS, above 100 µM; in the assay on T-47D breast, 69.1 µM; in the assay with SK-MEL-28 melanoma it was above 100 µM.
